CC(C)(C)c1cc(CCC(=O)OCC(COC(=O)CCc2cc(C(C)(C)C)c(O)c(C(C)(C)C)c2)(COC(=O)CCc2cc(C(C)(C)C)c(O)c(C(C)(C)C)c2)COC(=O)CCc2cc(C(C)(C)C)c(O)c(C(C)(C)C)c2)cc(C(C)(C)C)c1O
solubility (mole fraction)
Details	293.15 K	298.15 K	303.15 K	308.15 K	313.15 K	318.15 K	323.15 K	328.15 K	333.15 K
in ethanol	0.000302	0.000445	0.000685	0.00105	0.0016	0.00238	0.00351	0.0051	0.0074
in isopropanol	0.000148	0.000239	0.000406	0.000631	0.000998	0.00158	0.00252	0.00411	0.00638
in methanol	0.000221	0.000332	0.000544	0.000812	0.00126	0.00203	0.00287	0.00429	0.00726
